{
  "source": "patent US20170095497A1",
  "about": "“TRANSIENT INHIBITION OF ADENOSINE KINASE AS AN ANTI-EPILE[…]” (Legacy Emanuel Hospital & Health Center, priority 2015, published 2017)",
  "key": {"[1]": {"test_system": "kainic acid (KA) triggered epileptogenesis in mice", "assay": "Histological analysis of hippocampal tissue sections at nine weeks after KA status epilepticus", "format": "in vivo, mouse", "procedure": "(§1) Kainic acid (KA) was administered intrahippocampally (IH) at day 0 to produce status epilepticus. […] At six weeks and nine weeks, the subjects were analyzed by EEG alone or EEG and histology, respectively.\nAdministration of saline only is a control (top row of images). […] The tissue sections shown in the first column of images were Nissl stained, and those in the second, third, and fourth columns were stained respectively with antibodies to glial fibrillary acidic protein (GFAP), ADK, and 5-methylcytosine (5mC).\nFIGS. 12-14 are a series of graphs plotting data from the histological analysis represented by FIG. 11. […] FIG. 13 plots the level of GFAP, and FIG. 14 the level of ADK."}, "[2]": {"test_system": "kainic acid (KA) triggered epileptogenesis in mice", "assay": "EEG seizure recording six weeks after intrahippocampal kainic acid-triggered epileptogenesis, transient ITU treatment", "format": "in vivo, mouse", "procedure": "as §1\nThe number of subjects from which data were collected is indicated in parentheses above each condition."}, "[3]": {"test_system": "DNA methyltransferase (DNMT)", "details": "mice, one hour after administration", "from_the_text": "FIGS. 3 and 4 show a pair of bar graphs reporting the level of DNMT activity measured one hour after administration to mice of vehicle alone or with the indicated inhibitor."}, "[4]": {"details": "hippocampal sections, nine weeks after KA, transient ITU ip"}, "[5]": {"details": "1.6 mg/kg ip twice daily, day 3 to day 8 after KA, EEG at six weeks"}},
  "data": [
    {"molecule": "Nc1ncnc2c1c(I)cn2[C@@H]1O[C@H](CO)[C@@H](O)[C@H]1O", "note": "[ITU, 5-iodotubercidin]", "values": [
      {"measurement": "dentate granule layer dispersion produced by KA", "setting": "[1]; Nissl stained sections, nine weeks, compared to controls", "value": "significantly less"},
      {"measurement": "level of 5-methylcytosine", "setting": "[1]; [4]", "value": "reduced"},
      {"measurement": "level of ADK", "setting": "[1]; [4]", "value": "reduced"},
      {"measurement": "epilepsy-associated histopathology (Nissl)", "setting": "[1]; nine weeks after KA, transient ITU ip", "value": "prevented later development of epilepsy-associated histopathology"},
      {"measurement": "seizure frequency", "setting": "[2]; [5]", "value": "dramatically reduced"},
      {"measurement": "time spent in seizure", "setting": "[2]; [5]", "value": "dramatically reduced"},
      {"measurement": "frequency of seizures and time spent in seizures", "setting": "[2]; 3.1 mg/kg ip once daily, day 3 to day 8 after KA, EEG at six weeks", "value": "substantially ineffective"},
      {"measurement": "frequency of seizures and time spent in seizures, partial repeat experiment", "setting": "[2]; ITU twice daily, EEG at six weeks, repeat of FIGS. 6 and 7", "value": "confirm the long-term, anti-epileptogenic effect"},
      {"measurement": "half-life", "setting": "[2]; mice, inferred from once-daily versus twice-daily efficacy", "value": "much less than one day"},
      {"measurement": "inhibition of DNMT compared with AZA", "setting": "[3]; ITU 3.1 mg/kg", "value": "as effective as AZA"},
      {"measurement": "DNMT inhibition compared with ADOX and IODO", "setting": "[3]", "value": "most effective"}
    ]}
  ]
}
